Molecular target: T1, mouse TRPM3α2 (mTRPM3) ion channel (Mus musculus, UniProt J9SQF3)
T1 construct: expressed in transfected cells; host or cells: flip-in HEK293
Assay: TRPM3 ion channel driven Ca2+ uptake, Fluo-4 AM assay, mTRPM3alpha2 overexpressing flip-in HEK293 cells stimulated with pregnenolone sulfate (50 μM)
Type: cell-based
Conditions: mTRPM3 overexpressing HEK293 cells stimulated with pregnenolone sulfate (50 μM), activity ranges A, B, C
Method in brief: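 Ca2+ influx via mouse TRPM3α2 was opened with pregnenolone sulfate (50 μM) and tracked by Fluo-4 AM fluorescence at 485/535 nm, read directly after adding about 2000 stably transfected HEK293 cells per well to compound. IC50 values come from percent inhibition scaled to vehicle and positive-control inhibitor signals.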

T1 sequence (J9SQF3 1-1709 isoform J9SQF3-12): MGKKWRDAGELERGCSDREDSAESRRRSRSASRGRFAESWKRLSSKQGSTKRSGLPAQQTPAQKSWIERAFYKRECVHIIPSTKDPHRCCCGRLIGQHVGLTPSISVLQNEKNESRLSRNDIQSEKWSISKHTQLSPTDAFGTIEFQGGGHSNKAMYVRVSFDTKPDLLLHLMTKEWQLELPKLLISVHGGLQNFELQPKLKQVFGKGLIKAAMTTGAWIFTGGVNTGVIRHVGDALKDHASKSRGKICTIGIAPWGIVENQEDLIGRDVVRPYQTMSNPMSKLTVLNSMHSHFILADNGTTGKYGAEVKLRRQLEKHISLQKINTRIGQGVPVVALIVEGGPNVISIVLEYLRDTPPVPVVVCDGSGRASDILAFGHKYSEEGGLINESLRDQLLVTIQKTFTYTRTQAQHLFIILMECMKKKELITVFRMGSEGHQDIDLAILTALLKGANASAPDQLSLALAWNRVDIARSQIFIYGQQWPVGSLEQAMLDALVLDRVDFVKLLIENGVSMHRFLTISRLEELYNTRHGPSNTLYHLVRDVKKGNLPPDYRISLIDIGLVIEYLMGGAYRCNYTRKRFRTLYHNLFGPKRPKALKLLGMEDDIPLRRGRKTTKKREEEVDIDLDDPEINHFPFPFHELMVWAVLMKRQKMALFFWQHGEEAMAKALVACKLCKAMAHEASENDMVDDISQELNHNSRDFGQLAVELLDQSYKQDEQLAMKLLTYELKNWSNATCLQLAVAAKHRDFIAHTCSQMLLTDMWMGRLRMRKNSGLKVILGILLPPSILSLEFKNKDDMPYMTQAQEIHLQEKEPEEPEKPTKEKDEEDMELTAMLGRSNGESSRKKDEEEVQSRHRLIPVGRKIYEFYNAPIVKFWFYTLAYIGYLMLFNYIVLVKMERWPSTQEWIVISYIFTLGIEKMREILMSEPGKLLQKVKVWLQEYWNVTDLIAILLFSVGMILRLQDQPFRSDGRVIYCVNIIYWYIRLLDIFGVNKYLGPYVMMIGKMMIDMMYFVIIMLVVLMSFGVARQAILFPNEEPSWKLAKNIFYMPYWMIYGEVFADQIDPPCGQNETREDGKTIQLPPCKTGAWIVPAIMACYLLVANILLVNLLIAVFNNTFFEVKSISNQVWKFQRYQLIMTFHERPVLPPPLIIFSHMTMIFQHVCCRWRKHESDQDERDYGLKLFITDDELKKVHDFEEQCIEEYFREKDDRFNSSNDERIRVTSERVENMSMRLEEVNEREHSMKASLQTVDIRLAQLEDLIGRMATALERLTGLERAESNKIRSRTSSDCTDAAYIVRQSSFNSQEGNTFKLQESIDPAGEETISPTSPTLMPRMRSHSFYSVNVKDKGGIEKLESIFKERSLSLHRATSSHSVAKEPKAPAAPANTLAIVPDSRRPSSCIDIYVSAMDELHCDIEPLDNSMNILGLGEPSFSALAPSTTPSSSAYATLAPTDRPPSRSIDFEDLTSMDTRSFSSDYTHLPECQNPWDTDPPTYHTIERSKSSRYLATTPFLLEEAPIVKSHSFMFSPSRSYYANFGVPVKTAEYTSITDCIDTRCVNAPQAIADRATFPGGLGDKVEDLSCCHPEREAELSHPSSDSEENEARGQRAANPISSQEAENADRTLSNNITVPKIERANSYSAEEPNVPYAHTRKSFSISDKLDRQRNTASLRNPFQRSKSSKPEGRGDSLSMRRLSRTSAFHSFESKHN

| IC50 | Structure (SMILES) |
| --- | --- |
| 1000 to 20000 nM | Cn1nc2ccc(OCc3ccccc3)cc2c1C(=O)NC1(C(N)=O)COC1 [Cpd 041, 5-(benzyloxy)-N-(3-carbamoyloxetan-3-yl)-2-methyl-2H-indazole-3-carboxamide] |
| > 20000 nM | Cn1nc2ccc(OCC3(C#N)CC3)cc2c1C(=O)NC(C)(CO)CO [Cpd 146, 5-[(1-cyanocyclopropyl)methoxy]-N-(1,3-dihydroxy-2-methylpropan-2-yl)-2-methyl-2H-indazole-3-carboxamide] |
| < 1000 nM | Cn1nc2ccc(OCC3CC3)cc2c1C(=O)N[C@@H](CO)C(N)=O [Cpd 137, (2S)-2-{[5-(cyclopropylmethoxy)-2-methyl-2H-indazol-3-yl]formamido}-3-hydroxypropanamide] |
| 1000 to 20000 nM | Cn1nc2ccc(OCc3cccnc3C(F)(F)F)cc2c1C(=O)NC1(C(N)=O)COC1 [Cpd 087, N-(3-carbamoyloxetan-3-yl)-2-methyl-5-{[2-(trifluoromethyl)pyridin-3-yl]methoxy}-2H-indazole-3-carboxamide] |
| < 1000 nM | Cn1nc2ccc(OCc3cccnc3C(F)(F)F)cc2c1C(=O)NC1(C(N)=O)CCOC1 (single isomer, unassigned) [Cpd 178 - En1] |
| > 20000 nM | Cc1ncsc1COc1ccc2nn(C)c(C(=O)O)c2c1 [Cpd 199, 2-methyl-5-[(4-methyl-1,3-thiazol-5-yl)methoxy]-2H-indazole-3-carboxylic acid] |
| 1000 to 20000 nM | CNC(=O)C1(NC(=O)c2c3cc(OCc4cccnc4C(F)(F)F)ccc3nn2C)CCOC1 (single isomer, unassigned) [Cpd 183 - En2, 2-methyl-N-[3-(methylcarbamoyl)oxolan-3-yl]-5-{[2-(trifluoromethyl)pyridin-3-yl]methoxy}-2H-indazole-3-carboxamide] |
| 1000 to 20000 nM | Cn1nccc1COc1ccc2nn(C)c(C(=O)NC(CO)C(N)=O)c2c1 (stereo not shown) [Cpd 027, 3-hydroxy-2-({2-methyl-5-[(1-methyl-1H-pyrazol-5-yl)methoxy]-2H-indazol-3-yl}formamido)propanamide] |
| 1000 to 20000 nM | CN(C)C1(CNC(=O)c2c3cc(OCc4ccnn4C)ccc3nn2C)CCC1 [Cpd 046, N-{[1-(dimethylamino)cyclobutyl]methyl}-2-methyl-5-[(1-methyl-1H-pyrazol-5-yl)methoxy]-2H-indazole-3-carboxamide] |
| 1000 to 20000 nM | Cn1nc2ccc(OCc3cccnc3C(F)(F)F)cc2c1C(=O)NC1CCNCC1(F)F (single isomer, unassigned) [Cpd 003 - En2] |
| > 20000 nM | Cn1nc2ccc(OCC3CCCC3)cc2c1C(=O)NC(C)(CO)CO [Cpd 144, 5-(cyclopentylmethoxy)-N-(1,3-dihydroxy-2-methylpropan-2-yl)-2-methyl-2H-indazole-3-carboxamide] |
| 1000 to 20000 nM | C[C@@H](NC(=O)c1c2cc(OCc3ccccc3F)ccc2nn1C)C(N)=O [Cpd 098, (2R)-2-({5-[(2-fluorophenyl)methoxy]-2-methyl-2H-indazol-3-yl}formamido)propanamide] |
| > 20000 nM | Cn1nc2ccc(OCC3COC3)cc2c1C(=O)NC(C)(CO)C(N)=O (single isomer, unassigned) [Cpd 167 - En1] |
| 1000 to 20000 nM | Cc1ncc(COc2ccc3nn(C)c(C(=O)NC(C)(C)C(N)=O)c3c2)s1 [Cpd 103, 2-methyl-2-({2-methyl-5-[(2-methyl-1,3-thiazol-5-yl)methoxy]-2H-indazol-3-yl}formamido)propanamide] |
| 1000 to 20000 nM | Cn1nc2ccc(OCc3ccccc3)cc2c1C(=O)NC1CCN(CC(F)(F)F)C1 (stereo not shown) [Cpd 060, 5-(benzyloxy)-2-methyl-N-[1-(2,2,2-trifluoroethyl)pyrrolidin-3-yl]-2H-indazole-3-carboxamide] |
| > 20000 nM | Cn1nc2ccc(OCc3ccccn3)cc2c1C(=O)NC(CO)Cn1ccnc1C(F)(F)F (stereo not shown) [Cpd 242, N-{1-hydroxy-3-[2-(trifluoromethyl)-1H-imidazol-1-yl]propan-2-yl}-2-methyl-5-[(pyridin-2-yl)methoxy]-2H-indazole-3-carboxamide] |

| IC50 | Structure (SMILES) |
| --- | --- |
| > 20000 nM | Cn1nc2ccc(OCc3ccccn3)cc2c1C(=O)NC(CO)CC(F)F (single isomer, unassigned) [Cpd 228 - En2] |
| > 20000 nM | Cc1ncsc1COc1ccc2nn(C)c(C(=O)NC3CCN(CCO)C3=O)c2c1 (stereo not shown) [Cpd 037, N-[1-(2-hydroxyethyl)-2-oxopyrrolidin-3-yl]-2-methyl-5-[(4-methyl-1,3-thiazol-5-yl)methoxy]-2H-indazole-3-carboxamide] |
| 1000 to 20000 nM | COCC(C)(CO)NC(=O)c1c2cc(OCc3ccccn3)ccc2nn1C (single isomer, unassigned) [Cpd 258 - En1] |
| 1000 to 20000 nM | Cn1nc2ccc(OCC3CCOCC3)cc2c1C(=O)NC(C)(CO)C(N)=O (single isomer, unassigned) [Cpd 158 - En1] |
| < 1000 nM | CNC(=O)C1(NC(=O)c2c3cc(OCc4cccnc4C(F)(F)F)ccc3nn2C)CCOC1 (single isomer, unassigned) [Cpd 183 - En1, 2-methyl-N-[3-(methylcarbamoyl)oxolan-3-yl]-5-{[2-(trifluoromethyl)pyridin-3-yl]methoxy}-2H-indazole-3-carboxamide] |
| < 1000 nM | Cn1nc2ccc(OCc3ccccc3F)cc2c1C(=O)NC(C)(CO)C(N)=O (single isomer, unassigned) [Cpd 194 - En2] |
| < 1000 nM | Cn1nc2ccc(OCc3ccccc3F)cc2c1C(=O)NC(C)(CO)C(N)=O (single isomer, unassigned) [Cpd 194 - En1] |
| < 1000 nM | Cn1nc2ccc(OCc3ccccn3)cc2c1C(=O)NC(C)(CO)CC(F)F (single isomer, unassigned) [Cpd 201 - En2, N-(4,4-difluoro-1-hydroxy-2-methylbutan-2-yl)-2-methyl-5-[(pyridin-2-yl)methoxy]-2H-indazole-3-carboxamide] |
| < 1000 nM | O=C1c2c3cc(OCc4ccccc4F)ccc3nn2CCN1C(CO)CO [Cpd 260, 2-(1,3-dihydroxypropan-2-yl)-9-[(2-fluorophenyl)methoxy]-1H,2H,3H,4H-pyrazino[1,2-b]indazol-1-one] |
| < 1000 nM | CCC(CO)(NC(=O)c1c2cc(OCc3ccccn3)ccc2nn1C)C(N)=O (stereo not shown) [Cpd 189, 2-(hydroxymethyl)-2-({2-methyl-5-[(pyridin-2-yl)methoxy]-2H-indazol-3-yl}formamido)butanamide] |
| < 1000 nM | Cc1ncsc1COc1ccc2nn(C)c(C(=O)NC(C)(CO)C(N)=O)c2c1 (single isomer, unassigned) [Cpd 151 - En1] |
| < 1000 nM | Cc1ncsc1COc1ccc2nn(C)c(C(=O)NC3(C(N)=O)CCC3)c2c1 [Cpd 070, N-(1-carbamoylcyclobutyl)-2-methyl-5-[(4-methyl-1,3-thiazol-5-yl)methoxy]-2H-indazole-3-carboxamide] |
| 1000 to 20000 nM | Cc1ncsc1COc1ccc2nn(C)c(C(=O)NC3(C(N)=O)COC3)c2c1 [Cpd 031, N-(3-carbamoyloxetan-3-yl)-2-methyl-5-[(4-methyl-1,3-thiazol-5-yl)methoxy]-2H-indazole-3-carboxamide] |
| 1000 to 20000 nM | Cc1ncsc1COc1ccc2nn(C)c(C(=O)N[C@@H](C)C(N)=O)c2c1 [Cpd 101, (2S)-2-({2-methyl-5-[(4-methyl-1,3-thiazol-5-yl)methoxy]-2H-indazol-3-yl}formamido)propanamide] |
| > 20000 nM | Cn1nc2ccc(OCc3ccccn3)cc2c1C(=O)NCC(F)(F)c1ccccc1 [Cpd 208, N-(2,2-difluoro-2-phenylethyl)-2-methyl-5-[(pyridin-2-yl)methoxy]-2H-indazole-3-carboxamide] |
